Reference: ChEMBL document CHEMBL1201862, “PubChem BioAssay data set” (2004)
Several values for one entry are separate records, joined by “and”; a condition that tells them apart may be missing. Equal values may be shown once.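 Results reflect a 48-hour exposure of cells in 96-well plates to compound at five concentrations. Here, GI50 denotes the concentration required for 50% inhibition of growth.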 Activity calls are given as the source filed them. Cut-off read from the data, not from the text of the source: active = GI50 up to about 1.1 µM and inactive = higher.

Assays:
Test in all cases: NCI anticancer screen, dose series, 48 h
NCI-H23 = system: NCI-H23
M14 = system: M14
UO-31 = system: UO-31
OVCAR-8 = system: OVCAR-8
LXFL 529 = system: LXFL 529
RXF 393 = system: RXF 393
SK-OV-3 = system: SK-OV-3
HT-29 = system: HT-29
U-251 = system: U-251
UACC-257 = system: UACC-257
DMS-273 = system: DMS-273
SK-MEL-28 = system: SK-MEL-28
EKVX = system: EKVX
K562 = system: K562
SNB-19 = system: SNB-19
LOX IMVI = system: LOX IMVI
XF498 = system: XF498
TK-10 = system: TK-10
OVCAR-4 = system: OVCAR-4
HCT-116 = system: HCT-116
RPMI-8226 = system: RPMI-8226
UACC-62 = system: UACC-62
HCT-15 = system: HCT-15
MOLT-4 = system: MOLT-4
786-0 = system: 786-0
SF-539 = system: SF-539
HOP-92 = system: HOP-92
HOP-62 = system: HOP-62
ACHN = system: ACHN
SF-295 = system: SF-295
SW-620 = system: SW-620
NCI-H522 = system: NCI-H522
A498 = system: A498
SK-MEL-5 = system: SK-MEL-5
IGROV-1 = system: IGROV-1
CCRF-CEM = system: CCRF-CEM
Malme-3M = system: Malme-3M
SNB-78 = system: SNB-78
DMS-114 = system: DMS-114
OVCAR-5 = system: OVCAR-5
SN12C = system: SN12C
KM12 = system: KM12
NCI-H460 = system: NCI-H460
COLO 205 = system: COLO 205
SK-MEL-2 = system: SK-MEL-2
SF-268 = system: SF-268
CAKI-1 = system: CAKI-1
SNB-75 = system: SNB-75
HL-60 = system: HL-60
OVCAR-3 = system: OVCAR-3
M19-MEL = system: M19-MEL
A549 = system: A549
NCI/ADR-RES = system: NCI/ADR-RES
PC-3 = system: PC-3
DLD-1 = system: DLD-1
HCC 2998 = system: HCC 2998
KM-20L2 = system: KM-20L2
SR = system: SR

Measured: GI50

CCN(CC)c1ccc(C(=O)c2ccccc2C(=O)O)c(O)c1
> 100 µM: HCT-15
inactive: NCI-H23 > 100 µM | M14 > 100 µM | UO-31 > 100 µM | OVCAR-8 > 100 µM | LXFL 529 > 100 µM | RXF 393 > 100 µM | SK-OV-3 > 100 µM | HT-29 > 100 µM | U-251 > 100 µM | UACC-257 > 100 µM | DMS-273 > 100 µM | SK-MEL-28 > 100 µM | EKVX > 100 µM | K562 > 100 µM | SNB-19 > 100 µM | LOX IMVI > 100 µM | XF498 > 100 µM | TK-10 > 100 µM | OVCAR-4 > 100 µM | HCT-116 > 100 µM | RPMI-8226 > 100 µM | UACC-62 > 100 µM | MOLT-4 > 100 µM | 786-0 > 100 µM | SF-539 > 100 µM | HOP-92 > 100 µM | HOP-62 > 100 µM | ACHN > 100 µM | SF-295 > 100 µM | SW-620 > 100 µM | NCI-H522 42.9 µM | A498 > 100 µM | SK-MEL-5 > 100 µM | IGROV-1 > 100 µM | CCRF-CEM > 100 µM | Malme-3M > 100 µM | SNB-78 > 100 µM | DMS-114 > 100 µM | OVCAR-5 > 100 µM | SN12C > 100 µM | KM12 > 100 µM | NCI-H460 > 100 µM | COLO 205 > 100 µM | SK-MEL-2 > 100 µM | SF-268 > 100 µM | CAKI-1 > 100 µM | SNB-75 > 100 µM | HL-60 > 100 µM | OVCAR-3 > 100 µM | M19-MEL > 100 µM | A549 > 100 µM

CCC1(O)CC(OC2CC(N(C)C)C(OC3CC4OC5CC(=O)C(C)OC5OC4C(C)O3)C(C)O2)c2c(cc3c(c2O)C(=O)c2c(O)ccc(O)c2C3=O)C1C(=O)OC (stereo not given)
active: M14 > 10 nM and 5.62 nM | NCI/ADR-RES 4.79 nM | LXFL 529 > 0.01 µM | DMS-273 0.00365 µM | PC-3 3.15 nM | LOX IMVI 0.000953 µM | XF498 0.00828 µM | HOP-92 0.00624 µM | NCI-H522 0.00224 µM | SNB-78 0.0166 µM | DMS-114 0.00575 µM | OVCAR-3 > 10 nM and 5.92 nM | DLD-1 0.00792 µM | M19-MEL 0.00887 µM

O=C1Oc2cc3c(c4cccc1c24)OCN(c1ccccc1)C3
inactive: NCI-H23 > 100 µM | M14 > 100 µM | UO-31 > 100 µM | OVCAR-8 > 100 µM | LXFL 529 38.6 µM | RXF 393 > 100 µM | SK-OV-3 > 100 µM | HCC 2998 > 100 µM | HT-29 > 100 µM | U-251 > 100 µM | UACC-257 > 100 µM | DMS-273 > 100 µM | SK-MEL-28 > 100 µM | EKVX > 100 µM | K562 23.2 µM | SNB-19 > 100 µM | LOX IMVI 43.7 µM | XF498 > 100 µM | TK-10 > 100 µM | OVCAR-4 > 100 µM | HCT-116 > 100 µM | RPMI-8226 35.1 µM | UACC-62 36.5 µM | MOLT-4 > 100 µM | 786-0 > 100 µM | HOP-92 41.7 µM | HOP-62 > 100 µM | ACHN > 100 µM | SF-295 > 100 µM | KM-20L2 > 100 µM | SW-620 83.9 µM | NCI-H522 26.2 µM | A498 > 100 µM | SK-MEL-5 > 100 µM | IGROV-1 > 100 µM | CCRF-CEM 29.1 µM | Malme-3M > 100 µM | DMS-114 38.1 µM | OVCAR-5 > 100 µM | SN12C > 100 µM | KM12 > 100 µM | NCI-H460 > 100 µM | COLO 205 > 100 µM | SK-MEL-2 > 100 µM | SF-268 > 100 µM | CAKI-1 78.3 µM | SNB-75 > 100 µM | HL-60 43.5 µM | SR 44.8 µM | OVCAR-3 > 100 µM | DLD-1 > 100 µM | M19-MEL 38.8 µM | A549 > 100 µM
79.1 µM: HCT-15
